Here are results for 1 sequence from patent US7642239B2, “Inhibition of placenta growth factor (PLGF) mediated metastasis and/or angiogenesis” (Center for Molecular Medicine and Immunology, priority 2005, dated 2010).

One experiment has as its system MDA-MB-468. Briefly: Wound-healing (motility) assay, MDA-MB-468. It counts as cell-based, human. As to conditions: for Relative activity: unit assumed; for Migrating cells: 18-24 h. Here is the method: MCF-7, MDA-MB-23 1, and MDA-MB-468 breast tumor cell lines or HECs were seeded onto sterile glass coverslips in Petri dishes or six-well plates. When the cells were 70-80% confluent, the monolayers were scratched with a sterile plastic pipet tip.
Inhibitor concentrations were 50 μM PD98059 (PD98) (mitogen activated protein kinase-kinase 1 [MEK1] inhibitor), 5 nM Wortmannin (phosphatidyl inositol 3 kinase [PI3K] inhibitor), or human recombinant soluble Flt-1 (sFlt-1) (R&D Systems). […] Cells were pre-incubated with PD98 and Wortmannin for 15-30 min before addition of PlGF. Stained (Wright-Giemsa) and mounted coverslips were examined microscopically. Five to ten 100× fields were evaluated by counting the number of cells separated from the wound edges and which appeared to be migrating toward the center of the wound. Results are reported as the average number of cells migrating into the wound/100× field. In some cases data from separate experiments were combined to accommodate inclusion of various treatments in the tables.
Antibody concentration was 1 μg/ml. MEK1 inhibitor, PD98059 (PD98), 50 μM. PI3K inhibitor, Wortmannin, 5 nM. […] Values for antibody and inhibitor treatments were from separate experiments which included all relevant controls. […] UT denotes untreated controls. *P<0.01 (ANOVA) compared to UT; † P<0.02 (ANOVA) compared to PlGF only. ‡ P<0.001 (ANOVA) compared to PlGF only.

In a further experiment the test system is MDA-MB-468 xenografts. In kind it is in vivo, mice. As to conditions: 200 μg/dose i.p., twice-weekly. On the procedure: FIG. 5. Treatment of mice bearing MDA-MB-468 xenografts with peptides BP1 or BP3. Mice were treated every 3-4 days with 200 ug BP as described in Methods. Tumor volume was measured 2×/week. *P<0.05 at days 10, 14, 17 and 24 (change in tumor volume (ANOVA)). FIG. 5A—tumors treated with binding peptide 1. FIG. 5B—tumors treated with binding peptide 3.
Mice bearing MDA-MB-468 xenografts (average tumor volume: 0.19 cm^3) were treated with i.p. injections of individual peptides (200 μg/dose) (FIG. 5). After 4 weeks of twice-weekly treatment, tumor growth was inhibited by 49% and 58% in mice treated with BP1 (FIG. 5A) or BP3 (FIG. 5B), respectively. The effect of BP3 on tumor growth was apparent after 2 weeks of treatment (FIG. 5B), whereas the inhibitory effect of BP1 was evident after one week (FIG. 5A). The average changes in individual tumor volumes during treatment with BP1 were significant (P<0.05) at days 10, 14, 17 and 24 (FIG. 5A). Treatment with BP2 was ineffective; tumors continued to grow at almost the same rate as the mock-treated controls (results not shown). BP4 treatment produced a 20% inhibition of tumor growth (results not shown).

Ends that are not written are not given here.

With SHRYRLAIQLHASDSSSSCV [BP1], the Relative activity came to 97% with MDA-MB-468 (PlGF 2 nM ± test agent, relative to PlGF-only value) and 113% in the experiment on MDA-MB-468 (VEGF 2 nM ± test agent, relative to VEGF-only value). Further, the Migrating cells in the experiment with MDA-MB-468 (growth factor PlGF 2 nM ± test agent (Flt-1 2 nM, peptide 2 μM, antibody 1 μg/ml)) is 14.3 ± 8.1 cells/100× field; in the experiment on MDA-MB-468 (growth factor VEGF 2 nM ± test agent) it was 15.8 ± 9.5 cells/100× field. The “duration of treatment after which effect on tumor growth was apparent” value in the experiment on MDA-MB-468 xenografts is “one week”.
